Measurements reported in PubChem BioAssay (NCI).
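These data come from cells grown in 96-well plates and exposed to compound for 48 hours at five concentrations. GI50 marks 50% less growth. TGI: concentration producing complete growth inhibition.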

What was measured:
Experiment in all cases: growth of human tumour cells (NCI), 48 h
[1] = test system: RPMI-8226 leukemia
[2] = test system: A498 renal
[3] = test system: MDA-MB-231 breast
[4] = test system: NCI-H23 lung
[5] = test system: CCRF-CEM leukemia
[6] = test system: HS 578T breast
[7] = test system: TK-10 renal
[8] = test system: CAKI-1 renal
[9] = test system: OVCAR-3 ovarian
[10] = test system: SNB-19 CNS
[11] = test system: HCC-2998 colon
[12] = test system: ACHN renal
[13] = test system: PC-3 prostate
[14] = test system: T-47D breast
[15] = test system: HOP-62 NSCLC
[16] = test system: SW-620 colon
[17] = test system: NCI-H460 lung
[18] = test system: MOLT-4 leukemia
[19] = test system: KM12 colon
[20] = test system: HCT-15 colon
[21] = test system: RXF 393 renal
[22] = test system: NCI-H522 lung
[23] = test system: IGROV1 ovarian
[24] = test system: MCF7 breast
[25] = test system: COLO 205 colon
[26] = test system: MDA-MB-435
[27] = test system: A549 NSCLC
[28] = test system: NCI/ADR-RES ovarian
[29] = test system: EKVX NSCLC
[30] = test system: 786-0 renal
[31] = test system: OVCAR-4 ovarian
[32] = test system: UO-31 renal
[33] = test system: OVCAR-8 ovarian
[34] = test system: SK-MEL-28 melanoma
[35] = test system: HL-60(TB) leukemia
[36] = test system: SF-268 CNS
[37] = test system: BT-549 breast
[38] = test system: K-562 leukemia
[39] = test system: SR leukemia
[40] = test system: NCI-H226 lung
[41] = test system: UACC-62 melanoma
[42] = test system: SF-295 CNS
[43] = test system: SK-MEL-5 melanoma
[44] = test system: U251 CNS
[45] = test system: SF-539 CNS
[46] = test system: HCT-116 colon
[47] = test system: M14 melanoma
[48] = test system: SK-MEL-2 melanoma
[49] = test system: DU-145 prostate
[50] = test system: SN12C renal
[51] = test system: HOP-92 NSCLC
[52] = test system: LOX IMVI melanoma
[53] = test system: UACC-257 melanoma
[54] = test system: MDA-MB-468 breast
[55] = test system: MALME-3M melanoma
[56] = test system: SK-OV-3 ovarian
[57] = test system: HT29 colon
[58] = test system: OVCAR-5 ovarian

`COc1ccc(C(=O)/C=C/c2cccc(Cl)c2)cc1S(N)(=O)=O` was tested, and the GI50 [1] was 2.28 µM, the TGI [1] was 6.67 µM and the GI50 [2] was 16.3 µM. For the same molecule, the TGI [2] was 30.5 µM, the GI50 [3] was 2.26 µM and the TGI [3] was 5.9 µM. For the same molecule, the GI50 [4] was 1.78 µM, the TGI [4] was 3.5 µM and the GI50 [5] was 3.11 µM. The TGI [5] was 8.69 µM, the GI50 [6] was 10.7 µM and the TGI [6] was 50.9 µM. It also gave a GI50 [7] of 2.49 µM, a TGI [7] of 10.5 µM and a GI50 [8] of 2.4 µM. The TGI [8] was 9.07 µM, the GI50 [9] was 1.55 µM and the TGI [9] was 3.39 µM. It also gave a GI50 [10] of 3.13 µM, a TGI [10] of 12.4 µM and a GI50 [11] of 1.6 µM. The TGI [11] was 3.06 µM, the GI50 [12] was 1.75 µM and the TGI [12] was 3.23 µM. For the same molecule, the GI50 [13] was 2.23 µM, the TGI [13] was 6.18 µM and the GI50 [14] was 2.14 µM. The TGI [14] was 6.68 µM, the GI50 [15] was 2.2 µM and the TGI [15] was 6.43 µM. For the same molecule, the GI50 [16] was 1.68 µM, the TGI [16] was 3.53 µM and the GI50 [17] was 3.34 µM. The TGI [17] was 11.2 µM, the GI50 [18] was 2.38 µM and the TGI [18] was 6.15 µM. It also gave a GI50 [19] of 1.61 µM, a TGI [19] of 3.75 µM and a GI50 [20] of 1.14 µM. The TGI [20] was 2.59 µM, the GI50 [21] was 1.55 µM and the TGI [21] was 3.08 µM. It also gave a GI50 [22] of 1.63 µM, a TGI [22] of 3.22 µM and a GI50 [23] of 2.48 µM. For the same molecule, the TGI [23] was 9.06 µM, the GI50 [24] was 1.97 µM and the TGI [24] was 6.99 µM. It also gave a GI50 [25] of 1.81 µM, a TGI [25] of 3.41 µM and a GI50 [26] of 3.2 µM. The TGI [26] was 12.1 µM, the GI50 [27] was 2.5 µM and the TGI [27] was 10.2 µM. For the same molecule, the GI50 [28] was 2.29 µM, the TGI [28] was 6.48 µM and the GI50 [29] was 4.16 µM. The TGI [29] was 16.7 µM, the GI50 [30] was 1.57 µM and the TGI [30] was 3.49 µM. For the same molecule, the GI50 [31] was 3.58 µM, the TGI [31] was 14.3 µM and the GI50 [32] was 1.29 µM. It also gave a TGI [32] of 2.73 µM, a GI50 [33] of 2.81 µM and a TGI [33] of 11.7 µM. For the same molecule, the GI50 [34] was 2.78 µM, the TGI [34] was 9.4 µM and the GI50 [35] was 1.9 µM. The TGI [35] was 5.72 µM, the GI50 [36] was 3.27 µM and the TGI [36] was 13 µM. It also gave a GI50 [37] of 1.65 µM, a TGI [37] of 4.18 µM and a GI50 [38] of 2.13 µM. For the same molecule, the TGI [38] was over 100 µM, the GI50 [39] was 0.848 µM and the TGI [39] was 4.9 µM. It also gave a GI50 [40] of 2.83 µM, a TGI [40] of 11.9 µM and a GI50 [41] of 1.98 µM. The TGI [41] was 5.51 µM, the GI50 [42] was 2.24 µM and the TGI [42] was 7.94 µM. For the same molecule, the GI50 [43] was 3.18 µM, the TGI [43] was 12.6 µM and the GI50 [44] was 1.36 µM. It also gave a TGI [44] of 2.69 µM, a GI50 [45] of 1.75 µM and a TGI [45] of 3.78 µM. For the same molecule, the GI50 [46] was 1.21 µM, the TGI [46] was 2.52 µM and the GI50 [47] was 2.13 µM. It also gave a TGI [47] of 6.93 µM, a GI50 [48] of 12.9 µM and a TGI [48] of 26.2 µM. For the same molecule, the GI50 [49] was 3.52 µM, the TGI [49] was 12.2 µM and the GI50 [50] was 1.56 µM. It also gave a TGI [50] of 3.64 µM, a GI50 [51] of 2.28 µM and a TGI [51] of 18.6 µM. It also gave a GI50 [52] of 1.3 µM, a TGI [52] of 2.57 µM and a GI50 [53] of 5.53 µM. It also gave a TGI [53] of 18.9 µM, a GI50 [54] of 1.41 µM and a TGI [54] of 2.93 µM. For the same molecule, the GI50 [55] was 3.56 µM, the TGI [55] was 15.1 µM and the GI50 [56] was 6.24 µM. It also gave a TGI [56] of 19.1 µM, a GI50 [57] of 1.7 µM and a TGI [57] of 3.4 µM. For the same molecule, the GI50 [58] was 1.87 µM and the TGI [58] was 4.76 µM.
